Test results taken from patent US5405849A, “Angiotensin II receptor blocking 2,3,6 substituted quinazolinones” (American Cyanamid Company, priority 1993, dated 1995).

Test system: angiotensin II (AII) vasopressor response
Assay: AII challenge: antagonism of the vasopressor response of angiotensin II in conscious Okamoto-Aoki SHR
Format: in vivo, rat (Okamoto-Aoki SHR)
Settings: for inhibition in vivo at 1 mg/kg / inhibition in vivo at 10 mg/kg / inhibition in vivo at 2 mg/kg / inhibition in vivo at 30 mg/kg / inhibition in vivo at 5 mg/kg: Rattus norvegicus; for inhibition in vivo at 1 mg/kg / inhibition in vivo at 10 mg/kg / inhibition in vivo at 2 mg/kg / inhibition in vivo at 30 mg/kg: iv; for inhibition in vivo at 5 mg/kg: po
Description: Conscious Male Okamoto-Aoki SHR, 16-20 weeks old, weighing approximately 330 g are purchased from Charles River Labs (Wilmington, Mass.). Conscious rats are restrained in a supine position with elastic tape. The area at the base of the tail is locally anesthetized by subcutaneous infiltration with 2% procaine. The ventral caudal artery and vein are isolated, and a cannula made of polyethylene (PE) 10-20 tubing (fused together by heat) is passed into the lower abdominal aorta and vena cava, respectively. The cannula is secured, heparinized (1,000 I.U./ml), sealed and the wound is closed. The animals are placed in plastic restraining cages in an upright position. The cannula is attached to a Statham P23Db pressure transducer, and pulsatile blood pressure is recorded to 10-15 minutes with a Gould Brush recorder.
Angiotensin II (human sequence, Sigma Chem. Co., St. Louis, Mo.) of 0.05 and 0.1 ug/kg i.v. is injected into all rats (predosing response). Then a test compound, vehicle or a known angiotensin II antagonist is administered i.v., i.p. or orally to each set of rats. […] The vasopressor response of angiotensin II is measured for the increase in systolic blood pressure in mmHg. The percentage of antagonism or blockade of the vasopressor response of angiotensin II by a compound is calculated using the vasopressor response (increase in systolic blood pressure) of angiotensin II of each rat predosing the compound as 100%.

[1] = 0.5 h, 5 mg/kg oral, AII .05 ug/kg, 30 min
[2] = 0.5 h, 5 mg/kg oral, AII .1 ug/kg, 30 min
[3] = 1.5 h, 5 mg/kg oral, AII .05 ug/kg, 90 min
[4] = 1.5 h, 5 mg/kg oral, AII .1 ug/kg, 90 min
[5] = 2.5 h, 5 mg/kg oral, AII .05 ug/kg, 150 min
[6] = 2.5 h, 5 mg/kg oral, AII .1 ug/kg, 150 min

## CCCCc1nc2ccc(C(C)O)cc2c(=O)n1Cc1ccc(-c2ccccc2-c2nnn[nH]2)cc1 (stereo not drawn) [Example 49, 2-Butyl-6-(1-hydroxyethyl)-3-[[2'-(1H-tetrazol-5-yl)-[1,1'-biphenyl]-4-yl]methyl]-4(3H)-quinazolinone]
1 mg/kg iv, AII .05 ug/kg, 30 min
  Response change (systolic BP increase to AII): 27 mmHg
1 mg/kg iv, AII .05 ug/kg, 45 min
  Response change (systolic BP increase to AII): 25 mmHg
1 mg/kg iv, AII .05 ug/kg, 90 min
  Response change (systolic BP increase to AII): 40 mmHg
1 mg/kg iv, AII .1 ug/kg, 30 min
  Response change (systolic BP increase to AII): 40 mmHg
1 mg/kg iv, AII .1 ug/kg, 45 min
  Response change (systolic BP increase to AII): 25 mmHg
1 mg/kg iv, AII .1 ug/kg, 90 min
  Response change (systolic BP increase to AII): 40 mmHg
2 mg/kg iv, AII .05 ug/kg, 120 min
  Response change (systolic BP increase to AII): 10 mmHg
2 mg/kg iv, AII .05 ug/kg, 150 min
  Response change (systolic BP increase to AII): 35 mmHg
2 mg/kg iv, AII .05 ug/kg, 180 min
  Response change (systolic BP increase to AII): 50 mmHg
2 mg/kg iv, AII .1 ug/kg, 120 min
  Response change (systolic BP increase to AII): 35 mmHg
2 mg/kg iv, AII .1 ug/kg, 150 min
  Response change (systolic BP increase to AII): 40 mmHg
2 mg/kg iv, AII .1 ug/kg, 180 min
  Response change (systolic BP increase to AII): 55 mmHg
10 mg/kg iv, AII .05 ug/kg, 30 min
  Response change (systolic BP increase to AII): 0 mmHg
10 mg/kg iv, AII .05 ug/kg, 90 min
  Response change (systolic BP increase to AII): 0 mmHg
10 mg/kg iv, AII .1 ug/kg, 30 min
  Response change (systolic BP increase to AII): 0 mmHg
0.5 h, 1 mg/kg iv, AII .05 ug/kg, 30 min
  inhibition in vivo at 1 mg/kg: 40%
0.5 h, 1 mg/kg iv, AII .1 ug/kg, 30 min
  inhibition in vivo at 1 mg/kg: 27%
0.5 h, 10 mg/kg iv, AII .05 ug/kg, 30 min
  inhibition in vivo at 10 mg/kg: 100%
0.5 h, 10 mg/kg iv, AII .1 ug/kg, 30 min
  inhibition in vivo at 10 mg/kg: 100%
0.75 h, 1 mg/kg iv, AII .05 ug/kg, 45 min
  inhibition in vivo at 1 mg/kg: 45%
0.75 h, 1 mg/kg iv, AII .1 ug/kg, 45 min
  inhibition in vivo at 1 mg/kg: 55%
1.5 h, 1 mg/kg iv, AII .05 ug/kg, 90 min
  inhibition in vivo at 1 mg/kg: 11%
1.5 h, 1 mg/kg iv, AII .1 ug/kg, 90 min
  inhibition in vivo at 1 mg/kg: 27%
1.5 h, 10 mg/kg iv, AII .05 ug/kg, 90 min
  inhibition in vivo at 10 mg/kg: 100%
2 h, 2 mg/kg iv, AII .05 ug/kg, 120 min
  inhibition in vivo at 2 mg/kg: 78%
2 h, 2 mg/kg iv, AII .1 ug/kg, 120 min
  inhibition in vivo at 2 mg/kg: 36%
2.5 h, 2 mg/kg iv, AII .05 ug/kg, 150 min
  inhibition in vivo at 2 mg/kg: 23%
2.5 h, 2 mg/kg iv, AII .1 ug/kg, 150 min
  inhibition in vivo at 2 mg/kg: 27%
3 h, 2 mg/kg iv, AII .05 ug/kg, 180 min
  inhibition in vivo at 2 mg/kg: 11%
3 h, 2 mg/kg iv, AII .1 ug/kg, 180 min
  inhibition in vivo at 2 mg/kg: 0%

## CCCCc1nc2ccccc2c(=O)n1Cc1ccc(-c2ccccc2-c2nnn[nH]2)cc1 [Example 50]
30 mg/kg iv, AII .05 ug/kg, 90 min
  Response change (systolic BP increase to AII): 30 mmHg
0.5 h, 30 mg/kg iv, AII .05 ug/kg, 30 min
  inhibition in vivo at 30 mg/kg: 82%
0.5 h, 30 mg/kg iv, AII .1 ug/kg, 30 min
  inhibition in vivo at 30 mg/kg: 76%
1.5 h, 30 mg/kg iv, AII .05 ug/kg, 90 min
  inhibition in vivo at 30 mg/kg: 29%
1.5 h, 30 mg/kg iv, AII .1 ug/kg, 90 min
  inhibition in vivo at 30 mg/kg: 52%
2.5 h, 30 mg/kg iv, AII .05 ug/kg, 150 min
  inhibition in vivo at 30 mg/kg: 41%
2.5 h, 30 mg/kg iv, AII .1 ug/kg, 150 min
  inhibition in vivo at 30 mg/kg: 48%

## CCCCc1nc2ccc(C(C)(C)O)cc2c(=O)n1Cc1ccc(-c2ccccc2-c2nnn[nH]2)cc1 [Example 51, 2-butyl-6-(1-hydroxy-1-methylethyl)-3-[[2'-(1H-tetrazol-5-yl)-[1,1'-biphenyl]-4-yl]methyl]-4(3H)-quinazolinone]
[1]
  inhibition in vivo at 5 mg/kg: 30%
[2]
  inhibition in vivo at 5 mg/kg: 26%
[3]
  inhibition in vivo at 5 mg/kg: 75%
[4]
  inhibition in vivo at 5 mg/kg: 55%
[5]
  inhibition in vivo at 5 mg/kg: 63%
[6]
  inhibition in vivo at 5 mg/kg: 46%

## CCCCc1nc2ccc(C(O)CC)cc2c(=O)n1Cc1ccc(-c2ccccc2-c2nnn[nH]2)cc1 (stereo not drawn) [Example 52]
5 mg/kg oral, AII .05 ug/kg, 30 min
  Response change (systolic BP increase to AII): 25 mmHg
5 mg/kg oral, AII .05 ug/kg, 150 min
  Response change (systolic BP increase to AII): 15 mmHg
[1]
  inhibition in vivo at 5 mg/kg: 52%
[2]
  inhibition in vivo at 5 mg/kg: 43%
[3]
  inhibition in vivo at 5 mg/kg: 66%
[4]
  inhibition in vivo at 5 mg/kg: 63%
[5]
  inhibition in vivo at 5 mg/kg: 71%
[6]
  inhibition in vivo at 5 mg/kg: 60%
